Reference: patent US20260373138A1, “COMPOUNDS WITH ANTIFUNGAL PROPERTIES” (priority 2023, published 2026)

Assays:
[1] = test system: Aspergillus fumigatus SrbA pathway; conditions: phenotype of SrbA pathway inhibition, previously published; cited from earlier work
[2] = test system: A. fumigatus CEA10 reference strain; test: Fluconazole potentiator screen: MIC by CLSI microbroth dilution with and without fluconazole; assay type: cell-based, Aspergillus fumigatus; conditions: for MIC: Aspergillus fumigatus, read-out: MIC (ug/mL) (−) Fluc; for MIC / MIC (ug/mL) (+) Fluc: 18 h; for potency / potentiation of fluconazole (in words): structure-activity statements, fluconazole potentiator screen; for MIC (ug/mL) (+) Fluc: with 32 μg/ml fluconazole, normoxia, GMM, 37 °C

| SMILES | MIC to fluconazole [1] [µg/mL] | MIC [2] [µg/mL] | potency / potentiation of fluconazole (in words) [2] | MIC (ug/mL) (+) Fluc [2] [µg/mL] |
| --- | --- | --- | --- | --- |
| OC(Cn1cncn1)(Cn1cncn1)c1ccc(F)cc1F [fluconazole] | < 8 | – | – | – |
| O=S(=O)(c1ccc(Cl)cc1)N1CCC(Cc2ccc(CN3CCOCC3)cc2)CC1 [MBX-8146] | – | 0.28 | maintain activity in the morpholine series | 0.14 |
| O=C(c1ccc(Cl)cc1)N1CCC(Cc2ccc(COc3ccncc3)cc2)CC1 [MBX-7705] | – | 1.49 | low potentiation effect | 1.05 |
| O=S(=O)(c1ccsc1)N1CC2(CC(CCOc3ccncc3)C2)C1 [MBX-8306] | – | 9.1 | – | 4.50 |
| O=S(=O)(c1ccccn1)N1CCC2(CC1)CC(CCOc1ccncc1)CCO2 (centres unmarked) [MBX-7873] | – | > 16 | – | >16 |
| O=C(c1ccc(F)cc1)N1CCC(Cc2ccc(COc3ccncc3)cc2)CC1 [MBX-7706] | – | 1.01 | antagonistic effect | 8.09 |
| O=S(=O)(c1cc(F)cc(F)c1)N1CCC(Cc2ccc(CN3CCOCC3)cc2)CC1 [MBX-8223] | – | 12.6 | – | 3.50 |
| O=S(=O)(c1cccc(F)c1)N1CCC(C(O)c2ccc(CN3CCOCC3)cc2)CC1 (centres unmarked) [MBX-8355] | – | > 22 | – | >22 |
| O=S(=O)(c1cccc(F)c1)N1CCC(Cc2ccc(CN3CC4CC(C3)O4)cc2)CC1 [MBX-8221] | – | > 17 | – | >22 |
| CN1CCc2cc(CC3CCN(S(=O)(=O)c4ccc(F)cc4)CC3)ccc2C1 [MBX-8700] | – | 8.97 | – | 1.26 |
| O=S(=O)(c1ccc(F)cc1)N1CCC(Cc2ccc(CN3CCN4CCC[C@H]4C3)cc2)CC1 [MBX-8668] | – | 11.8 | – | 1.47 |
| O=C(c1ccccc1F)N1CCC(Cc2ccc(COc3ccncc3)cc2)CC1 [MBX-7769] | – | 11.4 | – | 8.09 |
| O=S(=O)(c1ccc(F)cc1)C1CCN(Cc2ccc(CN3CCOCC3)cc2)CC1 [MBX-8325] | – | > 20 | – | >20 |
| O=S(=O)(c1ccc(C(F)(F)F)nc1)N1CCC(Cc2ccc(CN3CCOCC3)cc2)CC1 [MBX-8186] | – | 4.8 | maintain activity in the morpholine series | 1.90 |
| O=C(c1ccsc1)N1CCC(Cc2ccc(COc3ccnc(Cl)c3)cc2)CC1 [MBX-8253] | – | > 21 | – | >21 |
| O=C(c1ccsc1)N1CCC(Cc2ccc(COc3ccncc3)nc2)CC1 [MBX-8323] | – | 2.4 | – | 1.20 |
| O=S(=O)(NC1CC2(CC(Cc3ccc(CN4CCOCC4)cc3)C2)C1)c1ccc(F)cc1 (centres unmarked) [MBX-8311] | – | 19 | – | 22.00 |
| O=C(c1ccsc1)N1CCC(Cc2cccc(COc3ccncc3)c2)CC1 [MBX-8029] | – | 27 | – | 19.00 |
| Cc1ccc(S(=O)(=O)N2CCC3(CC2)CC(CCOc2ccncc2)CCO3)cn1 (centres unmarked) [MBX-8143] | – | 10.8 | – | 3.81 |
